Assay results taken from publication PMC3183052, “Immunoprotectivity of HLA-A2 CTL Peptides Derived from Respiratory Syncytial Virus Fusion Protein in HLA-A2 Transgenic Mouse” (PLoS ONE, 2011).

Experiments:
[1] = tested on: lung eosinophils; test: Eosinophil infiltration into the lungs (anti-MBP immunohistochemistry); type: in vivo, HLA-A*0201 transgenic C57BL/6 mice; conditions: day 4 post RSV challenge; anti-MBP staining, 20 fields at 200×; six mice per group
Source text: Whole lungs were excised from the mice, fixed in 10% formalin (Sigma-Aldrich) solution overnight and embedded in paraffin (Thermo Fisher Scientific) for sectioning. The sections were stained with rat monoclonal anti-major basic protein (MBP) antibody (1∶500 dilution, gifted from Dr. James J. Lee, Mayo Clinic, AZ, USA) followed by the appropriate secondary antibodies. Twenty-bright field microscopy pictures (Nikon DXM1200 CCD digital camera attached with ACT-1 imaging capture software) from each stained section were taken at 200× magnifications and the number of eosinophils was counted. The mean of eosinophil count from each section was calculated.
Figure 6 Eosinophil infiltration into the lungs of peptide-immunized transgenic mice upon RSV challenge. Immunohistochemical analysis of lung sections with anti-major basic protein antibody specific for eosinophils followed by the HRP-conjugated anti-rat antibody was performed. (A) Pictures from the section of normal mouse lung (a), or vehicle- (b), peptide 3- (c), 13- (d), 14- (e) and 23- (f) immunized mouse lung section. (B) Quantitative representation of eosinophil count per section of peptide- or vehicle-immunized HLA-transgenic mice at day 4 post RSV challenge. Twenty bright field pictures from each lung mesenchymal region were examined and the number of eosinophils was counted under 200× magnification. […]

[2] = target: T1, HLA-A*0201 (Homo sapiens, UniProt P04439, D140Y/D185E/D98H/E176V/E277Q/G131W/G231S/I119V/I121R/I166T/I218V/L300P/L318F/N151K/N90K/P208A/P217A/Q86G/Q94H/R138H/R169H/T345S); test: T2 cell-stabilization assay (T2-binding); conditions: T2 cells 5×10^5, peptide 50 µg/mL + β2-microglobulin 5 µg/mL, 28°C 16–18 h, then brefeldin A 10 µg/mL 37°C 3 h; FITC anti-HLA-A2, flow cytometry; MFI relative to negative control HCV C55-74 (set as 1)
T1 construct: Human T2 cells (purchased from the American Type Culture Collection, ATCC) (ATCC No. CRL-1992) expressing the HLA-A*0201 gene; endogenous in cells; host or cells: human T2 cells (ATCC CRL-1992)
Method in brief: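 T2 cells were pulsed with 9-mer peptides (50 µg/mL) plus β2-microglobulin (5 µg/mL) at 28°C for 16–18 hours, then brefeldin A (10 µg/mL) at 37°C for 3 hours. Surface HLA-A2 was stained with FITC anti-HLA-A2 and read by flow cytometry. Binding is MFI relative to T2 cells loaded with HCV peptide C55-74 (MFI = 1).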

YMLTNSELL [peptide 14, HLA-A*0201-restricted 9-mer synthetic peptide from F protein of RSV-B1 strain]
eosinophil numbers in the lungs vs vehicle-immunized mice [1]: comparable eosinophil numbers
T2-binding Ratio of MFI [2]: 1.71
